These results are taken from ChEMBL document CHEMBL1151271, “Phrygiasterol, a cytotoxic cyclopropane-containing polyhydroxysteroid, and related compounds from the pacific starfish Hippasteria phrygiana” (J Nat Prod, 2005).

Converted amounts (≈) assume the structure as drawn.

Type in all cases: functional, cell-based
The test system of one assay is Ehrlich. Description: Induction of apoptosis in mouse EAC assessed as early apoptotic cell by Hoechst and PI staining.
The subject of the next assay is Splenocyte. The experiment in a line: Inhibition of calcium influx in mouse splenocytes.
The nature of assay [1]: Cytotoxicity against mouse EAC. The conditions noted are these: Ehrlich.

As for `CO[C@@H]1[C@@H](O)[C@H](O[C@@H](CC[C@@H](C)[C@H]2C[C@H](O)[C@@H]3[C@]2(C)CC[C@@H]2[C@@]4(C)CC[C@H](O)C[C@@H]4[C@@H](O)C[C@]23O)C(C)C)OC[C@H]1OS(=O)(=O)[O-].[Na+]` [PHRYGIOSIDE B], the EC50 in the assay with Ehrlich is 70 µg/mL; with Splenocyte it was 20 µg/mL. For `CO[C@@H]1[C@@H](O)[C@H](O[C@@H](CC[C@@H](C)[C@H]2C[C@H](O)[C@@H]3[C@]2(C)CC[C@@H]2[C@@]4(C)CC[C@H](O)C[C@@H]4[C@@H](O)C[C@]23O)C(C)C)OC[C@H]1O` [BOREALOSIDE C], in that order: 70 µg/mL (≈ 117 µM) and 20 µg/mL (≈ 33.4 µM). Consider `C[C@H](CC[C@@H]1C[C@H]1CO)[C@H]1[C@@H](O)[C@H](O)[C@@H]2[C@]1(C)CC[C@@H]1[C@@]3(C)CC[C@H](O)C[C@@H]3[C@@H](O)C[C@]12O` [PHRYGIASTEROL], for which the IC50 in assay [1] was 50 µg/mL (≈ 107 µM).

A word on the EC50: it is the midpoint of the concentration-response curve. Broadly, the IC50 is the midpoint of a concentration-inhibition curve. A lower IC50 goes with greater potency.
